The values below come from PMC5509420 (Molecular Biology of the Cell, 2017).

Positions count from the first letter of the chain named.

The target of test [1] is T1, Sse1 (Saccharomyces cerevisiae, UniProt P32589, F439L/L433A/M441A/N434P).
T1 sequence (P32589 2-693 L433A/N434P/F439L/M441A): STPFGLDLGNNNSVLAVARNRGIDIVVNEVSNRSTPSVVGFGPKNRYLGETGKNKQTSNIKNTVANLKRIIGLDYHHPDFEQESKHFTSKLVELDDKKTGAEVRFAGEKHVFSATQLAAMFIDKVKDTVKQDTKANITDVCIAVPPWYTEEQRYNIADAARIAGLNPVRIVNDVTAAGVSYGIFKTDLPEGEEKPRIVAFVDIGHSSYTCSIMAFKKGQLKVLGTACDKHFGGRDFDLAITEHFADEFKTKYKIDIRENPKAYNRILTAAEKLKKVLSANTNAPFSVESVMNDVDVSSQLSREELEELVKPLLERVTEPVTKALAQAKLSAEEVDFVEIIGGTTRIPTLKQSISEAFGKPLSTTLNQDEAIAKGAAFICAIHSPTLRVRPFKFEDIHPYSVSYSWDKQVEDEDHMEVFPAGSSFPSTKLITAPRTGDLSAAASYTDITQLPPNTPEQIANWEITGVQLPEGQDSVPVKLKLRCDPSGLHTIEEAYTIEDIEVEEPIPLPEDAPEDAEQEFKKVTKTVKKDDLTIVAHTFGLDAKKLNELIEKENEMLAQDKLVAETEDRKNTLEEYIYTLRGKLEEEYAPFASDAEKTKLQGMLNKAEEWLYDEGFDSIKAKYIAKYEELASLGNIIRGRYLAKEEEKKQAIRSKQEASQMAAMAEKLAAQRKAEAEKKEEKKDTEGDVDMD
Briefly: fluorescence polarization/anisotropy, saturation binding one-site fit. For orientation: In fluorescence polarisation assays a small probe gives low polarisation when free and higher when bound to something large.

In test [2] the target is T2, Sse1 (Saccharomyces cerevisiae, UniProt P32589).
T2 sequence (P32589 2-693): T1 sequence (P32589 2-693 L433A/N434P/F439L/M441A) with A432L, P433N, L438F, A440M
The description is as above.

The Kd is the free concentration of one partner at which half of the binding sites on the other are occupied at equilibrium, for simple one-to-one binding. As for `O=C(NCCCCCCNc1ncnc2c1ncn2[C@@H]1O[C@H](COP(=O)(O)OP(=O)(O)OP(=O)(O)O)[C@@H](O)[C@H]1O)c1ccc2c(c1)C(=O)OC21c2ccc(O)cc2Oc2cc(O)ccc21` [N^6-(6-amino)hexyl-ATP-5-FAM], the results for the Kd on Sse1 [1] and at Sse1 [2] were 12.1 ± 1.9 µM and 8.6 ± 1.4 µM, respectively.
